Experimental findings from patent US20260015360A1 (MOMA Therapeutics, Inc., priority 2023, published 2026) are described below.

The target in test [1] is T1, biotinylated Avi-POLΘ[2-894] (Homo sapiens, UniProt O75417).
T1 construct: 1 nM biotinylated Avi-POLΘ[2-894]
Kind of test: ATPase assay (ADP-Glo): POLΘ-mediated ATP hydrolysis. Conditions: read-out: Biochemical ATPase ADPGlo IC50.

The test system of test [2] is DLD1 BRCA2 (−/−) cells. Kind of test: DLD1 viability assay (CellTiter-Glo, 7 days), DLD1 BRCA2 (−/−). The format is cell-based. Particulars: read-out: Viability IC50 (μM) DLD1 BRCA2 null. (In general: ATP-based viability assays read luminescence as a measure of living cells.)
In test [3] the test system is DLD1 WT cells. Put plainly: DLD1 viability assay (CellTiter-Glo, 7 days), DLD1 WT. Type of test: cell-based.

T1 sequence (O75417 2-894 limits assumed): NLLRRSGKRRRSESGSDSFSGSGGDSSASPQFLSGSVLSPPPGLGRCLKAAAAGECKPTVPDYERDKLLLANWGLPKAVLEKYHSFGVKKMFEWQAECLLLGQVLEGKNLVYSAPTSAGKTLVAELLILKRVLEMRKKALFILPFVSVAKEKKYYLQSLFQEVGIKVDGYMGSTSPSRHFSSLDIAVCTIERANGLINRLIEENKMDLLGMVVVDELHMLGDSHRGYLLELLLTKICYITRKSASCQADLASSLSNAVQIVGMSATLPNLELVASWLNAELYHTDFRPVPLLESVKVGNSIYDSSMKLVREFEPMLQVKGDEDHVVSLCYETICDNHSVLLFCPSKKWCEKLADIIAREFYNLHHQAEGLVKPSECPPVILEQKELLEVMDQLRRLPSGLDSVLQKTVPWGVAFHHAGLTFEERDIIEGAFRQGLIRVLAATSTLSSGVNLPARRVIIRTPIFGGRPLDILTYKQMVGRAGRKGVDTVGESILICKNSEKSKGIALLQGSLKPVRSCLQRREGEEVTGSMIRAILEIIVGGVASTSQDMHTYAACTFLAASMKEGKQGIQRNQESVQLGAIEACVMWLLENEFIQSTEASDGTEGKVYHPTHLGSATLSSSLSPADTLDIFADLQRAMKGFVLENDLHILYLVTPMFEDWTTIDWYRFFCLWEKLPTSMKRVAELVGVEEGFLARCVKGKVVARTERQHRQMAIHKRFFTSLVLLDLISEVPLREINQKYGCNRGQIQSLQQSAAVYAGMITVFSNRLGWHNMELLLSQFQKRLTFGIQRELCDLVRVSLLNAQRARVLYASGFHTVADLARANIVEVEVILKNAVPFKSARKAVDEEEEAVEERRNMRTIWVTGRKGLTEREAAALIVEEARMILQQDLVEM

The IC50 is the concentration that gives 50% inhibition. Consider `COc1cnc(Cl)cc1-c1cc(C)ncc1C(=O)Nc1nn2cc(C(=O)N[C@@H]3CCCC[C@@H]3O)nc2s1` [Example 22], for which the half-maximal inhibitory concentration (IC50) is 0.001 to 0.015 µM in test [1], greater than 2 µM in test [2] and greater than 10 µM in test [3].
